For 21 molecules, IC50 and AC50 results are on record in patent publication US20100022514A1, “Heterocycle Compounds and Methods of Use Thereof” (NORVARTIS AG, priority 2006, published 2010).

Where two headings read alike, the source gives them in different places.

One experiment concerns the target T1, HDAC-1 (Homo sapiens, UniProt Q13547).
T1 construct: made in house
The experiment is described as follows: Deacetylase fluorescence assay (HDAC-1). In kind it is biochemical. The procedure:
Conventional methods are used to express deacetylase enzymes and purify them from lysed cells. The following example describes an exemplary procedure, however equivalent procedures are within the scope of the invention.
The cell line used is a derivative of 293 cells overexpressing a fusion of the gene encoding each deacetylase protein with a nucleotide sequence encoding the Flag marker.
Cells are grown in Optimem, 2% Fetal Calf Serum, Pen/Strep. For enzyme preparation, Lysis buffer (IPLS) is 50 mM Tris-HCl, pH 7.5, 120 mM NaCl, 0.5 mM EDTA and 0.5% Nonidet P-40, to which is added one tablet of Protease inhibitors (Roche 11836170001) per 10 ml buffer. Other buffers are IPHS, which is IPLS containing 1 M NaCl; TBS (Sigma #T5912) dilute 10× stock to 1× with dH2O; HD buffer: 10 mM Tris pH 8.0 (1M Stock) 10 mM NaCl (5M Stock), 10% glycerol, and for dialysis: 400 μM PMSF is added (for 2 L: use 8 ml 100 mM Stock). Protease inhibitors (Complete mini, Boehringer Mannheim), 1 tablet/10 mL are added to all buffers but not used in buffers for enzyme assays.
Cells are harvested without using trypsin, and most cells are obtained easily in PBS, with gentle striking or agitation of flasks if necessary. More adherent cells are scraped in PBS. Cells are grown in 500 cm^2 trays, from which about half of the media is aspirated (50 ml total), then cells are scraped in the rest of the media and transferred to a centrifuge tube. Trays are washed with 25 ml cold PBS, scraped again to collect additional cells, and centrifuged at 1500 rpm at 4° C. for 5 min. Cells are washed at least 3 times in PBS to remove growth media, pelleting cells after each wash by centrifugation at 1500 rpm for 5 minutes. After washing, PBS is removed and the resulting cell pellet frozen at −80° C. for storage prior to purification.
For purification, cells are resuspended in lysis buffer, 12 ml of IPLS for cells collected from 10 500 cm trays. Cells are lysed at 4° C. for 3 hrs with rocking, and debris is removed by centrifugation for 20 min at 17,000 rpm in 30 ml centrifuge tubes. If supernatant is not clear afterward, centrifugation of the supernatant is repeated. Protein concentration of the whole cell lysate is determined (generally in the range of about 2-5 mg/ml).
For immunoprecipitation per mg of protein, 15 μL of anti-Flag M2-Agarose Affinity beads (Sigma #A2220) is used. Beads are prepared by washing 3 times with 10× bead volume of PBS and 1 time with IPLS, with centrifugation of the washes at 1500 rpm for 5 min. Whole cell lysate is incubated with the Ab-beads overnight at 4° C. Then beads are centrifuged and washed in 5× volume of the following buffers: three times in IPLS (30 sec at 4° C., spin at 1500 RPM for 5 min); three times in IPHS; and three times in TBS buffer. After each centrifugation, the supernatant is aspirated, leaving the pellet as dry as possible but avoiding sucking up any of the beads.
To elute the enzyme, beads are resuspended in 5× bead volume of TBS with protease inhibitor (Roche 11836170001) 1 tablet/10 mL. Enzyme is eluted with 400 μg/mL Flag peptide (Sigma #F-3290) for 3 hrs at 4° C. on rotator. Then beads are centrifuged, and the supernatant is transferred to a new tube to which is added 1/10 volume of glycerol. The supernatant is transferred to a dialysis cassette (Pierce #66410) using a 3 cc syringe and 18 G needle, and is dialyze sup in 2 L HD buffer for 2 hrs at 4° C. (1 L/hour). The resulting purified deacetylase is divided into aliquots (300 μL/tube), is snap frozen in dry ice bath, and is stored at −80° C.
For assay of deacetylase an assay based on Deacetylase Fluorescent Activity Assay/Drug Discovery Kit (BioMol # AK500) is used, however any equivalent deacetylase assay is within the scope of the invention.
The Fluorescent Assay Buffer (FAB) contains: 25 mM Tris-HCl, pH 8.0, 137 mM NaCl, 2.7 mM KCl and 1 mM MgCl2. […]

Experiment [1] concerns p21 promoter (p21-luc) in H1299 cells. The experiment is described as follows: p21 promoter luciferase assay using stably transfected p21-luc in H1299 cells. Format: cell-based. The following applies: Homo sapiens, NCI-H1299. On the procedure: The cell lines used are derived from H1299 (p21-luc). The growth media used is RPMI 1640, 10% FBS, 1% Pen/Strep and the selection media added is 500 μg/mL Geneticin (Gibco). The buffer used is 5× cell culture lysis buffer (Promega #E1531), stored at −20 C and the Luciferase assay reagent (Promega #E1483) is stored at −70° C. The results of the assay are analyzed using Wallac Software.
To assay Luciferase, the cell culture medium is removed after one day of growth and the flasks are washed once with PBS. The cells are trypsinized in 20 mL of media and the trypsin is neutralized. The cells are counted (0.5-1 mL) on a Vi-Cell XR cell viability analyzer.
Cells are then diluted to a concentration of approximately 5000 cells/200 μL, and 190 μL samples are aliquoted into each well of a Costar white 96-well TC treated white bottom plate with lid (Costar #3917). Plates are then incubated overnight at 37 C.
After a further day, a sample of the compound is added to the wells for assay.
After a further day, the cells are lysed and the luciferase activity of the lysed cells is measured. Each well is washed twice with PBS and 20 μL/well of 1× cell culture lysis buffer (dilute 5× to 1× in distilled water) is added to each well. The microtiter plates are then shaken on a microtiter plate shaker for 20 minutes at room temperate at a speed setting of 5-6. After removal from the shaker, 100 μL of Luciferase Reagent is added to each well. Each microtiter plate is then read on Wallac Envision instrument.

T1 sequence (Q13547 whole entry): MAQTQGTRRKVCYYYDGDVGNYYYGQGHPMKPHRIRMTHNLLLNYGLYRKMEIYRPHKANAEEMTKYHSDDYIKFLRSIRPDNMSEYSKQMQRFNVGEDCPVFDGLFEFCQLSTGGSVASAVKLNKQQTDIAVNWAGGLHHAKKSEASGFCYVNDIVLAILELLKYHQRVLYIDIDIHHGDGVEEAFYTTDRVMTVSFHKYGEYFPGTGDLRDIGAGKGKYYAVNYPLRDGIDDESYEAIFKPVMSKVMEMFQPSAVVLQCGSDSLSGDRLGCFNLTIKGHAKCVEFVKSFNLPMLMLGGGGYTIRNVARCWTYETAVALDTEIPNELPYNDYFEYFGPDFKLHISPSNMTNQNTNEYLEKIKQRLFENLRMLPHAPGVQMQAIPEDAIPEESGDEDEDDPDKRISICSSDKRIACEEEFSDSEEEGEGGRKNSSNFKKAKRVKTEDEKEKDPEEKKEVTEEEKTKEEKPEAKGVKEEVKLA

The IC50 is the concentration needed to halve the response being measured. The term AC50 denotes the concentration at which the activity in the assay is half-maximal. Read a high AC50 as weaker potency. As for `O=C(/C=C/c1ccc2c(c1)CN(C(=O)C1CC1)C2)NO` [Example 23, (E)-3-(2-Cyclopropanecarbonyl-2,3-dihydro-1H-isoindol-5-yl)-N-hydroxy-acrylamide], the IC50 at HDAC-1 (read-out: HDAC-1 IC50) was 100 to 1000 nM. Further, in experiment [1], the AC50 is more than 1000 nM.

Regarding `O=C(/C=C/c1ccc2c(c1)CN(S(=O)(=O)C1CC1)C2)NO` [Example 24, (E)-3-(2-Cyclopropanesulfonyl-2,3-dihydro-1H-isoindol-5-yl)-N-hydroxy-acrylamide], the IC50 at HDAC-1 (read-out: HDAC-1 IC50) was 100 to 1000 nM. In addition, the AC50 in experiment [1] is more than 1000 nM.

Regarding `Cc1[nH]c2ccccc2c1CC(=O)N1Cc2ccc(/C=C/C(=O)NO)cc2C1` [Example 25, (E)-N-Hydroxy-3-{2-[2-(2-methyl-1H-indol-3-yl)-acetyl]-2,3-dihydro-1H-isoindol-5-yl}-acrylamide], the IC50 on HDAC-1 (read-out: HDAC-1 IC50) is less than 100 nM. In experiment [1], this molecule came in with an AC50 of more than 1000 nM.

In the case of `O=C(/C=C/c1ccc2c(c1)CN(C(=O)Cc1ccccc1)C2)NO` [Example 26, (E)-N-Hydroxy-3-(2-phenylacetyl-2,3-dihydro-1H-isoindol-5-yl)-acrylamide], the IC50 on HDAC-1 (read-out: HDAC-1 IC50) is 100 to 1000 nM. This molecule came in with a half-maximal activity concentration (AC50) in experiment [1] of more than 1000 nM.

For `O=C(/C=C/c1ccc2c(c1)CN(CCc1c[nH]c3ccccc13)C2)NO` [Example 27, (E)-N-Hydroxy-3-{2-[2-(1H-indol-3-yl)-ethyl]-2,3-dihydro-1H-isoindol-5-yl}-acrylamide], the IC50 against HDAC-1 was less than 100 nM. In experiment [1], this molecule returned an AC50 of more than 1000 nM.

For the molecule `O=C(/C=C/c1ccc2c(c1)CN(CCc1cnn3ccccc13)C2)NO` [Example 28, (E)-N-Hydroxy-3-[2-(2-pyrazolo[1,5-a]pyridin-3-yl-ethyl)-2,3-dihydro-1H-isoindol-5-yl]-acrylamide], on HDAC-1 (read-out: HDAC-1 IC50), the IC50 was less than 100 nM. The same molecule returned an AC50 in experiment [1] of more than 1000 nM.

Consider `Cc1[nH]c2ccccc2c1CCN1Cc2ccc(/C=C/C(=O)NO)cc2C1` [Example 29, (E)-N-Hydroxy-3-{2-[2-(2-methyl-1H-indol-3-yl)-ethyl]-2,3-dihydro-1H-isoindol-5-yl}-acrylamide], for which the IC50 against HDAC-1 was less than 100 nM. This molecule also showed a concentration at half-maximal activity (AC50) in experiment [1] of 100 to 1000 nM.

In the case of `O=C(CCc1ccc2c(c1)CN(CCC1CCCCC1)CC2)NO` [Example 31], the half-inhibitory concentration (IC50) at HDAC-1 (read-out: HDAC-1 IC50) was 100 to 1000 nM. Further, the AC50 in experiment [1] was more than 1000 nM.

Turning to `Cc1nn(C)c(C)c1CN1CCc2cc(/C=C/C(=O)NO)ccc2C1` [Example 32, (E)-N-Hydroxy-3-[2-(1,3,5-trimethyl-1H-pyrazol-4-ylmethyl)-1,2,3,4-tetrahydro-isoquinolin-6-yl]-acrylamide], the concentration for half-maximal inhibition (IC50) on HDAC-1 (read-out: HDAC-1 IC50) is more than 1000 nM. In experiment [1], the AC50 is more than 1000 nM.

On to `Cc1nn2ccccc2c1CCN1CCCc2cc(/C=C/C(=O)NO)ccc2C1` [Example 33, (E)-N-Hydroxy-3-{2-[2-(2-methyl-pyrazolo[1,5-a]pyridin-3-yl)-ethyl]-2,3,4,5-tetrahydro-1H-benzo[c]azepin-7-yl}-acrylamide], for which, on HDAC-1 (read-out: HDAC-1 IC50), the IC50 is less than 100 nM. Also, in experiment [1], the AC50 is more than 1000 nM.

With `Cc1noc(-c2ccccc2)c1CCN1Cc2ccc(/C=C/C(=O)NO)cc2C1` [Example 34, (E)-N-Hydroxy-3-{2-[2-(3-methyl-5-phenyl-isoxazol-4-yl)-ethyl]-2,3-dihydro-1H-isoindol-5-yl}-acrylamide], the IC50 at HDAC-1 (read-out: HDAC-1 IC50) is 100 to 1000 nM. In experiment [1], this molecule registered an AC50 of more than 1000 nM.

With `O=C(/C=C/c1ccc2c(c1)CN(CCC1CCCCC1)C2)NO` [Example 35, (E)-3-[2-(2-Cyclohexyl-ethyl)-2,3-dihydro-1H-isoindol-5-yl]-N-hydroxy-acrylamide], the IC50 on HDAC-1 (read-out: HDAC-1 IC50) is 100 to 1000 nM. Further, the AC50 in experiment [1] is more than 1000 nM.

For the molecule `O=C(/C=C/c1ccc2c(c1)CN(CCc1c[nH]c3ccccc13)CC2)NO` [Example 36, (E)-N-Hydroxy-3-{2-[2-(1H-indol-3-yl)-ethyl]-1,2,3,4-tetrahydro-isoquinolin-7-yl}-acrylamide], at HDAC-1 (read-out: HDAC-1 IC50), the IC50 was in the range of 100 to 1000 nM. In experiment [1], this molecule displayed an AC50 of more than 1000 nM.

Consider `Cc1[nH]c2ccccc2c1CCN1CCc2ccc(CCC(=O)NO)cc2C1` [Example 37, N-Hydroxy-3-{2-[2-(2-methyl-1H-indol-3-yl)-ethyl]-1,2,3,4-tetrahydro-isoquinolin-7-yl}-propionamide], for which the IC50 at HDAC-1 (read-out: HDAC-1 IC50) was more than 1000 nM. This molecule also registered an AC50 in experiment [1] of more than 1000 nM.

`Cc1noc(-c2ccccc2)c1CCN1CCc2ccc(/C=C/C(=O)NO)cc2C1` [Example 38, (E)-N-Hydroxy-3-{2-[2-(3-methyl-5-phenyl-isoxazol-4-yl)-ethyl]-1,2,3,4-tetrahydro-isoquinolin-7-yl}-acrylamide]: on HDAC-1 (read-out: HDAC-1 IC50), the IC50 was less than 100 nM. The AC50 in experiment [1] is more than 1000 nM.

On to `Cc1[nH]c2ccccc2c1CCN1CCc2ccc(/C=C/C(=O)NO)cc2C1` [Example 39, (E)-N-Hydroxy-3-{2-[2-(2-methyl-1H-indol-3-yl)-ethyl]-1,2,3,4-tetrahydro-isoquinolin-7-yl}-acrylamide], for which, on HDAC-1 (read-out: HDAC-1 IC50), the IC50 is less than 100 nM. In addition, the AC50 in experiment [1] was 100 to 1000 nM.

With `Cc1nn2ccccc2c1CCN1CCc2ccc(/C=C/C(=O)NO)cc2C1` [Example 40, (E)-N-Hydroxy-3-{2-[2-(2-methyl-pyrazolo[1,5-a]pyridin-3-yl)-ethyl]-1,2,3,4-tetrahydro-isoquinolin-7-yl}-acrylamide], on HDAC-1 (read-out: HDAC-1 IC50), the IC50 was less than 100 nM. In addition, the AC50 in experiment [1] is more than 1000 nM.

For the molecule `Cc1[nH]c2ccccc2c1CCN1CCCc2cc(/C=C/C(=O)NO)ccc2C1` [Example 41, (E)-N-Hydroxy-3-{2-[2-(2-methyl-1H-indol-3-yl)-ethyl]-2,3,4,5-tetrahydro-1H-benzo[c]azepin-7-yl}-acrylamide], the IC50 on HDAC-1 (read-out: HDAC-1 IC50) was less than 100 nM. In experiment [1], this molecule gave an AC50 of more than 1000 nM.

In the case of `CC(C)(C)c1[nH]c2ccccc2c1CCN1CCc2ccc(/C=C/C(=O)NO)cc2C1` [Example 42, (E)-3-{2-[2-(2-tert-Butyl-1H-indol-3-yl)-ethyl]-1,2,3,4-tetrahydro-isoquinolin-7-yl}-N-hydroxy-acrylamide], at HDAC-1 (read-out: HDAC-1 IC50), the IC50 was less than 100 nM. In experiment [1], this molecule yielded an AC50 of 100 to 1000 nM.

Turning to `CC(C)(C)c1[nH]c2ncccc2c1CCN1CCc2ccc(/C=C/C(=O)NO)cc2C1` [Example 43, (E)-3-{2-[2-(2-tert-Butyl-1H-pyrrolo[2,3-b]pyridin-3-yl)-ethyl]-1,2,3,4-tetrahydro-isoquinolin-7-yl}-N-hydroxy-acrylamide], on HDAC-1 (read-out: HDAC-1 IC50), the IC50 is less than 100 nM. Besides, in experiment [1], the half-maximal activity concentration (AC50) was more than 1000 nM.

Take `O=C(/C=C/c1ccc2c(c1)CN(CCc1ccccc1)CC2)NO` [Example 44, (E)-N-Hydroxy-3-(2-phenethyl-1,2,3,4-tetrahydro-isoquinolin-7-yl)-acrylamide]: the IC50 on HDAC-1 (read-out: HDAC-1 IC50) fell in the range of 100 to 1000 nM. This molecule had an AC50 in experiment [1] of more than 1000 nM.
